The values that follow come from patent publication US9796711B2, “Substituted pyrazolo[3,4-b]pyridin-6-carboxylic acids and method of use” (AbbVie S.àr.l., priority 2015, dated 2017).

In assay [1] the target is T1, ΔF508-CFTR (Homo sapiens, UniProt P13569, DEL508-508).
T1 construct: host or cells: CFBE41o-, doxycycline-inducible
Briefly: CFTR cell surface levels using HRP-tagged ΔF508-CFTR expressing CFBE cells, in the presence of a co-corrector. The class given is cell-based. Conditions: HRP-tagged ΔF508-CFTR expressing CFBE cells, in the presence of 3 μM co-corrector; for pEC50: read-out: EC50. In short, it runs like this:
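Cells were seeded with 0.5 μg/mL doxycycline and held 68 h at 37 °C. Test compounds plus 3 μM co-corrector (final 0.1% DMSO) were then added for 20 h at 33 °C. Washed cells received HRP substrate, and luminescence was normalized between DMSO and 3 μM co-corrector controls.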

Assay [2] concerns the target T1, ΔF508-CFTR. Briefly: CFTR cell surface levels using HRP-tagged ΔF508-CFTR expressing CFBE cells, intrinsic corrector capacity. As to conditions: for pEC50: read-out: EC50. The class given is cell-based. Put shortly: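 Here the cells express ΔF508-CFTR with horseradish peroxidase inserted in extracellular loop 4, so only rescued channel at the surface gives luminescent signal. Compounds act on their own, 20 h at the reduced temperature of 33 °C; values are percent activity relative to DMSO and a 3 μM corrector.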

Where [3] appears, read: HRP-tagged ΔF508-CFTR CFBE41o- cells, compounds alone (intrinsic corrector capacity), 20 hours at 33° C., positive control 3 μM corrector.
Setting [4] is: HRP-tagged ΔF508-CFTR CFBE41o- cells, compounds alone (intrinsic corrector capacity), 20 hours at 33° C.
Where [5] appears, read: HRP-tagged ΔF508-CFTR expressing CFBE cells, intrinsic corrector capacity (no co-corrector), 33° C., 20 hours.

pEC50: −log10 of the molar value.

T1 sequence (P13569 with tags, fused parts or gaps DEL508-508): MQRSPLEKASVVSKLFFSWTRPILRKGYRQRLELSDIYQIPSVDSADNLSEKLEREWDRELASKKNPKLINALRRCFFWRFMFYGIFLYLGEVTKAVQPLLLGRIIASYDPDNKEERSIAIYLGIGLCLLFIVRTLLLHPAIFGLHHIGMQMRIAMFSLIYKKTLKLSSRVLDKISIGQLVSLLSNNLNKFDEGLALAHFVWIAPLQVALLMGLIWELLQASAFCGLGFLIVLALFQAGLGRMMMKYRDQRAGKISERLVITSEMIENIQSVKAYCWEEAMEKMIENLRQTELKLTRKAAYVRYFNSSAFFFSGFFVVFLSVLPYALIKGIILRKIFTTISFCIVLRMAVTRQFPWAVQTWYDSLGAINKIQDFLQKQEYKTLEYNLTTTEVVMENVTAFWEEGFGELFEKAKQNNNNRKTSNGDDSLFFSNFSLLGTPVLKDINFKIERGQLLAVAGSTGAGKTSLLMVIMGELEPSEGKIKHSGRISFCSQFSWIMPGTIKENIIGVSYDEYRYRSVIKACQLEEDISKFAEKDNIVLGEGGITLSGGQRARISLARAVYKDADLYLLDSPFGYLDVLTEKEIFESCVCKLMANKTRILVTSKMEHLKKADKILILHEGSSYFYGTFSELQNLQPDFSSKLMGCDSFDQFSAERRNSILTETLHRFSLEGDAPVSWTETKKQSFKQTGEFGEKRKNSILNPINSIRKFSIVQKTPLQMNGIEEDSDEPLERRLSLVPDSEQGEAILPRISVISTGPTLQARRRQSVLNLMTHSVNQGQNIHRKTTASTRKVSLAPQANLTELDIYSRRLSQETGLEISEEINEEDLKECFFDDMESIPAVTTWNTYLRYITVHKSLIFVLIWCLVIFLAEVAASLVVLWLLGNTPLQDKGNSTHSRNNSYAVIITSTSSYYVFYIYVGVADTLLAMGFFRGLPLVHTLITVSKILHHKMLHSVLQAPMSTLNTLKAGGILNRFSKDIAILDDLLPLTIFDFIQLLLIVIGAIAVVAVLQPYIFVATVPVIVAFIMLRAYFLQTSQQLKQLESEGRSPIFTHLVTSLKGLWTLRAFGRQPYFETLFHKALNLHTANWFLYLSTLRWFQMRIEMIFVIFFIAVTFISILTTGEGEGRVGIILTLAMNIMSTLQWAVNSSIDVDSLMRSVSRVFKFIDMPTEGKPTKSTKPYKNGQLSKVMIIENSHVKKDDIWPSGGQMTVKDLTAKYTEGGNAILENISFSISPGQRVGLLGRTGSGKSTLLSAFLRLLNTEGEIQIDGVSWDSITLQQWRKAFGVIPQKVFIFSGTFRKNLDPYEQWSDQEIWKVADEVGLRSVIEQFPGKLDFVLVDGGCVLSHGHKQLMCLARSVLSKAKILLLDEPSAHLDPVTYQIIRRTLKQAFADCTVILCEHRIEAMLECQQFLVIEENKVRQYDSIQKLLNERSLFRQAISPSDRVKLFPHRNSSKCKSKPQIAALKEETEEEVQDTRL

The pEC50 is the negative decadic logarithm of the EC50, by convention in mol/L. Regarding `Cc1cccc(-n2nc(C(C)C)c3c(N4CCC5(CC4)COC5)cc(C(=O)O)nc32)c1` [compound 202, 1-(3-methylphenyl)-4-(2-oxa-7-azaspiro[3.5]nonan-7-yl)-3-(propan-2-yl)-1H-pyrazolo[3,4-b]pyridine-6-carboxylic acid], the “% Activation” value in assay [1] came to 309.3%; in assay [2] (setting [3]), 136.8%. Further, the pEC50 in assay [1] was 6.22; in assay [2] (setting [4]) it was 6.10.
Consider `CC(C)c1nn(-c2ccc(F)cc2)c2nc(C(=O)O)cc(N3CCN(CCO)CC3)c12` [compound 773, 1-(4-fluorophenyl)-4-[4-(2-hydroxyethyl)piperazin-1-yl]-3-(propan-2-yl)-1H-pyrazolo[3,4-b]pyridine-6-carboxylic acid], for which, in assay [1], the “% Activation” value is on record as 141.8% and the pEC50 is 5.30. In assay [2] (setting [5]), the “% Activation” value came out at 16.13% and the pEC50 is 5.30.
Regarding `O=C(O)c1cc(N2CCN(CC(=O)N3CCCC3)CC2)c2c(C3CCC3)nn(-c3ccccc3)c2n1` [compound 472, 3-cyclobutyl-4-{4-[2-oxo-2-(pyrrolidin-1-yl)ethyl]piperazin-1-yl}-1-phenyl-1H-pyrazolo[3,4-b]pyridine-6-carboxylic acid], the results for the “% Activation” value in assay [1] and in assay [2] (setting [5]) were 292.55% and 144%, respectively. The negative logarithm of the EC50 (pEC50) was 5.86 in assay [1] and 5.60 in assay [2] (setting [5]).
Regarding `Cc1nn(-c2ccc(F)cc2F)c2nc(C(=O)O)cc(-c3ccc(N4CCOCC4)nc3)c12` [compound 104, 1-(2,4-difluorophenyl)-3-methyl-4-[6-(morpholin-4-yl)pyridin-3-yl]-1H-pyrazolo[3,4-b]pyridine-6-carboxylic acid], the “% Activation” value in assay [1] is 308.55%; in assay [2] (setting [3]), 130.4%. Besides, the pEC50 in assay [1] is 6.00; in assay [2] (setting [4]) it was 5.91.
For `O=C(O)c1cc(N2CCN3C[C@H](O)C[C@H]3C2)c2c(C3CCC3)nn(-c3ccccc3)c2n1` [compound 475, 3-cyclobutyl-4-[(7R,8aS)-7-hydroxyhexahydropyrrolo[1,2-a]pyrazin-2(1H)-yl]-1-phenyl-1H-pyrazolo[3,4-b]pyridine-6-carboxylic acid], the figures for the “% Activation” value in assay [1] and in assay [2] (setting [5]) were 163.35% and 35.755%, respectively. The pEC50 in assay [1] is 5.57; in assay [2] (setting [5]), 5.18.
On to `N#CC1CCN(c2ccc(-c3cc(C(=O)O)nc4c3c(C3CCC3)nn4-c3ccnc(N4CCOCC4)c3)cn2)CC1` [compound 416, 4-[6-(4-cyanopiperidin-1-yl)pyridin-3-yl]-3-cyclobutyl-1-[2-(morpholin-4-yl)pyridin-4-yl]-1H-pyrazolo[3,4-b]pyridine-6-carboxylic acid], for which, in assay [1], the “% Activation” value came to 369.5% and the pEC50 is 6.11. Moreover, in assay [2] (setting [5]), the “% Activation” value is on record as 179.1% and the pEC50 was 5.90.
Turning to `Cc1nn(-c2ccccc2)c2nc(C(=O)O)cc(OC[C@H](F)C3CCN(C)CC3)c12` [compound 380, 4-[(2R)-2-fluoro-2-(1-methylpiperidin-4-yl)ethoxy]-3-methyl-1-phenyl-1H-pyrazolo[3,4-b]pyridine-6-carboxylic acid], the figures for the “% Activation” value in assay [1] and in assay [2] (setting [3]) were 141.7% and 14.735%, respectively. In addition, the negative-log EC50 (pEC50) in assay [1] is 6.02; in assay [2] (setting [4]) it was 5.30.
Regarding `O=C(O)c1cc(OC[C@@H]2CCCO2)c2c(C3CCC3)nn(-c3ccccc3)c2n1` [compound 480, 3-cyclobutyl-4-{[(2S)-oxolan-2-yl]methoxy}-1-phenyl-1H-pyrazolo[3,4-b]pyridine-6-carboxylic acid], the “% Activation” value is given as 270.4% in assay [1] and 115.15% in assay [2] (setting [5]). The pEC50 was 6.44 in assay [1] and 6.06 in assay [2] (setting [5]).
The like results for `O=C(O)c1cc(OCCN2CCCCCC2)c2c(C3CCC3)nn(-c3ccccc3)c2n1` [compound 643, 4-[2-(azepan-1-yl)ethoxy]-3-cyclobutyl-1-phenyl-1H-pyrazolo[3,4-b]pyridine-6-carboxylic acid] were, in that order, 271.8%, 95.84%, 5.90 and 5.54.
With `CC(C)c1nn(-c2cccc(N(C)C)c2)c2nc(C(=O)O)cc(N3CCC(CO)CC3)c12` [compound 331, 1-[3-(dimethylamino)phenyl]-4-[4-(hydroxymethyl)piperidin-1-yl]-3-(propan-2-yl)-1H-pyrazolo[3,4-b]pyridine-6-carboxylic acid], the “% Activation” value in assay [1] was 513.57%; in assay [2] (setting [3]), 311.73%. Besides, the pEC50 in assay [1] was 6.41; in assay [2] (setting [4]), 5.98.
As for `CC(=O)N1CCN(c2cc(C(=O)O)nc3c2c(C(C)C)nn3-c2ccc(F)cc2)CC1` [compound 771, 4-(4-acetylpiperazin-1-yl)-1-(4-fluorophenyl)-3-(propan-2-yl)-1H-pyrazolo[3,4-b]pyridine-6-carboxylic acid], the “% Activation” value in assay [1] turned out to be 290.8%; in assay [2] (setting [5]), 94.91%. The pEC50 in assay [1] and in assay [2] (setting [5]) was 5.78 throughout.
Take `COc1ccc(-n2nc(C3CCC3)c3c(N4CCC(N5CCOCC5)CC4)cc(C(=O)O)nc32)cc1F` [compound 912, 3-cyclobutyl-1-(3-fluoro-4-methoxyphenyl)-4-[4-(morpholin-4-yl)piperidin-1-yl]-1H-pyrazolo[3,4-b]pyridine-6-carboxylic acid]: in assay [1], the “% Activation” value was determined as 397.9% and the pEC50 was 6.57. In addition, in assay [2] (setting [5]), the “% Activation” value is on record as 212.4% and the pEC50 was 6.14.
The like results for `CC(C)Oc1nn(C2CCCCC2)c2nc(C(=O)O)cc(-c3ccc(C(=O)N4CCN(C)CC4)cc3)c12` [compound 764, 1-cyclohexyl-4-[4-(4-methylpiperazine-1-carbonyl)phenyl]-3-[(propan-2-yl)oxy]-1H-pyrazolo[3,4-b]pyridine-6-carboxylic acid] were, in that order, 255.65%, 5.62, 85.92% and 5.48.
The like results for `CC(C)c1nn(-c2ccc(F)cc2)c2nc(C(=O)O)cc(N3CC4(CCCOC4)C3)c12` [compound 400, 1-(4-fluorophenyl)-4-(6-oxa-2-azaspiro[3.5]nonan-2-yl)-3-(propan-2-yl)-1H-pyrazolo[3,4-b]pyridine-6-carboxylic acid] were, in that order, 283.65%, 6.01, 111.35% and 5.87.
Consider `Cc1nn(-c2ccccc2)c2nc(C(=O)O)cc(-c3ccc(N4CC5CCC(C4)O5)cc3)c12` [compound 134, 3-methyl-4-[4-(8-oxa-3-azabicyclo[3.2.1]octan-3-yl)phenyl]-1-phenyl-1H-pyrazolo[3,4-b]pyridine-6-carboxylic acid], for which the “% Activation” value in assay [1] was determined as 362.2%; in assay [2] (setting [3]) it was 153.25%. Also, the results for the pEC50 in assay [1] and in assay [2] (setting [4]) were 6.25 and 6.01, respectively.
In the case of `COC1CCC(Oc2cc(C(=O)O)nc3c2c(C)nn3-c2ccccc2)CC1` (centres unmarked) [compound 376, 4-[(4-methoxycyclohexyl)oxy]-3-methyl-1-phenyl-1H-pyrazolo[3,4-b]pyridine-6-carboxylic acid], the figures for the “% Activation” value in assay [1] and in assay [2] (setting [3]) were 289.4% and 109.7%, respectively. Besides, the negative logarithm of the EC50 (pEC50) is 5.94 in assay [1] and 5.79 in assay [2] (setting [4]).
Turning to `CC1(C)CN(C2CCN(c3cc(C(=O)O)nc4c3c(C3CCC3)nn4-c3ccc(F)cc3)CC2)CCO1` [compound 876, 3-cyclobutyl-4-[4-(2,2-dimethylmorpholin-4-yl)piperidin-1-yl]-1-(4-fluorophenyl)-1H-pyrazolo[3,4-b]pyridine-6-carboxylic acid], the “% Activation” value in assay [1] is 562.35%; in assay [2] (setting [5]) it was 324.4%. Besides, the pEC50 is 6.57 in assay [1] and 6.52 in assay [2] (setting [5]).
Turning to `CC(C)c1nn(C2CCCCC2)c2nc(C(=O)O)cc(-c3ccc(N4CCOCC4)cc3)c12` [compound 54, 1-cyclohexyl-4-[4-(morpholin-4-yl)phenyl]-3-(propan-2-yl)-1H-pyrazolo[3,4-b]pyridine-6-carboxylic acid], the “% Activation” value was 392.6% in assay [1] and 167.9% in assay [2] (setting [3]). The pEC50 in assay [1] was 6.42; in assay [2] (setting [4]) it was 6.12.
The like results for `CC(C)c1nn(-c2ccc(F)c(F)c2)c2nc(C(=O)O)cc(-c3ccc(N(C)C4CCOCC4)cc3)c12` [compound 278, 1-(3,4-difluorophenyl)-4-{4-[methyl(oxan-4-yl)amino]phenyl}-3-(propan-2-yl)-1H-pyrazolo[3,4-b]pyridine-6-carboxylic acid] were, in that order, 446.55%, 259.1%, 6.17 and 6.00.
For the compound `COC(C)(C)C1CCN(c2cc(C(=O)O)nc3c2c(C2CCC2)nn3-c2ccccc2)CC1` [compound 605, 3-cyclobutyl-4-[4-(2-methoxypropan-2-yl)piperidin-1-yl]-1-phenyl-1H-pyrazolo[3,4-b]pyridine-6-carboxylic acid], in assay [1], the “% Activation” value turned out to be 531.3% and the pEC50 is 7.36. In addition, in assay [2] (setting [5]), the “% Activation” value amounted to 292.8% and the pEC50 is 7.09.
